Experimental findings from US12054486B2, “Pyridine derivatives and their use as sodium channel activators” (Xenon Pharmaceuticals Inc., priority 2021, dated 2024) are described below.

A value given as a limit tells only on which side of the number the result lay.

The assay addresses sodium channel isoforms of interest stably expressed in Human Embryonic Kidney Cells (voltage-gated sodium channel, particularly NaV1.1) (Homo sapiens, UniProt P35498). Briefly: automated planar patch clamp assay of sodium channel gating (area under the sodium current trace). As to conditions: HEK cells, voltage step from −120 mV to 0 mV, increasing concentrations. The assay is classed as cell-based. The text has this:
A typical assay described in Crestey, F. et al., ACS Chem Neurosci (2015), Vol. 6, pp. 1302-1308, AA43279 (Frederiksen, K. et al., Eur J Neurosci (2017), Vol. 46, pp. 1887-1896) and Lu AE98134 (von Schoubyea, N. L. et al., Neurosci Lett (2018), Vol. 662, pp. 29-35) employs the use of automated planar patch clamp techniques to study the effects of the chemical agent on the gating of sodium channels. The sodium channel isoforms of interest are stably expressed in Human Embryonic Kidney Cells and the currents that flow through those channels in response to a depolarizing voltage clamp step from −120 mV to 0 mV are measured in the presence of increasing concentrations of the chemical agents. The area under the sodium current trace which correlates to the magnitude of sodium flux through the cell membrane is used to quantify the effects on gating of the channels. Other parameters that are measured in the assay include the peak current, time constant of open state inactivation and the voltage dependence of steady state inactivation properties. The concentration responses are used to determine potency of each chemical agents effects on modulating the sodium channel isoform gating. Such techniques are known to those skilled in the art, and may be developed, using current technologies, into low or medium throughput assays for evaluating compounds for their ability to modulate sodium channel behaviour.
As disclosed above, typical assays for testing compounds of the disclosure are known, for example as disclosed in Crestey, F. et al., ACS Chem Neurosci (2015), Vol. 6, pp. 1302-1308, AA43279 (Frederiksen, K. et al., Eur J Neurosci (2017), Vol. 46, pp. 1887-1896) and Lu AE98134 (von Schoubyea, N. L. et al., Neurosci Lett (2018), Vol. 662, pp. 29-35) which employs the use of automated planar patch clamp techniques to study the effects of the chemical agent on the gating of sodium channels. The sodium channel isoforms of interest are stably expressed in Human Embryonic Kidney Cells and the currents that flow through those channels in response to a depolarizing voltage clamp step from −120 mV to 0 mV are measured in the presence of increasing concentrations of the chemical agents. The area under the sodium current trace which correlates to the magnitude of sodium flux through the cell membrane is used to quantify the effects on gating of the channels. Other parameters that are measured in the assay include the peak current, time constant of open state inactivation and the voltage dependence of steady state inactivation properties. The concentration responses are used to determine potency of each chemical agents effects on modulating the sodium channel isoform gating.
As usually defined, the EC50 is the concentration giving half of the maximal effect. With `FC1(F)CC2(CN(c3nccc(-c4ccccc4)c3-c3nc4c([nH]3)COCC4)C2)C1` [Example 50, 2-(2-(6,6-difluoro-2-azaspiro[3.3]heptan-2-yl)-4-phenylpyridin-3-yl)-3,4,6,7-tetrahydropyrano[3,4-d]imidazole], the EC50 was in the range of 10000 to 50000 nM and the “Empirical Emax” value is “++ (++ indicates a value from 2.0 up to 5.0 μM)”.

Turning to `FC(F)(F)C1(CNc2nccc(-c3ccccc3)c2-c2nc3c([nH]2)COCC3)CCC1` [Example 51, 4-phenyl-3-(3,4,6,7-tetrahydropyrano[3,4-d]imidazol-2-yl)-N-((1-(trifluoromethyl)cyclobutyl)methyl)pyridin-2-amine], the EC50 was less than 1000 nM and the “Empirical Emax” value was “+ (+ indicates a value less than 2.0 μM)”.

With `CC1(C)Cc2nc(-c3c(-c4ccccc4)ccnc3N3CCC(F)(F)C3)[nH]c2CO1` [Example 52, 2-(2-(3,3-difluoropyrrolidin-1-yl)-4-phenylpyridin-3-yl)-6,6-dimethyl-3,4,6,7-tetrahydropyrano[3,4-d]imidazole], the EC50 was less than 1000 nM and the “Empirical Emax” value is “+++ (+++ indicates a value from 5.0 up to 7.5 μM)”.

Regarding `FC1(F)CCN(c2nccc(-c3ccccc3)c2-c2nc3c([nH]2)COC2(CCC2)C3)C1` [Example 53, 2′-(2-(3,3-difluoropyrrolidin-1-yl)-4-phenylpyridin-3-yl)-4′,7′-dihydro-3′H-spiro[cyclobutane-1,6′-pyrano[3,4-d]imidazole]], the EC50 was in the range of 1000 to 10000 nM and the “Empirical Emax” value is on record as “++ (++ indicates a value from 2.0 up to 5.0 μM)”.

For the compound `CC1(C)OCCc2nc(-c3c(-c4ccccc4)ccnc3N3CCC(F)(F)C3)[nH]c21` [Example 54, 2-(2-(3,3-difluoropyrrolidin-1-yl)-4-phenylpyridin-3-yl)-4,4-dimethyl-3,4,6,7-tetrahydropyrano[3,4-d]imidazole], the EC50 lay within 1000 to 10000 nM and the “Empirical Emax” value is “+++ (+++ indicates a value from 5.0 up to 7.5 μM)”.

As for `CC(C)(C)OC(=O)N1CCc2nc(-c3c(-c4ccccc4)ccnc3N3CCC(F)(F)C3)[nH]c2C1` [Example 55, Tert-Butyl 2-[2-(3,3-difluoropyrrolidin-1-yl)-4-phenyl-3-pyridyl]-3,4,6,7-tetrahydroimidazo[4,5-c]pyridine-5-carboxylate], the EC50 was less than 1000 nM and the “Empirical Emax” value is recorded as “+++ (+++ indicates a value from 5.0 up to 7.5 μM)”.

Take `Fc1ccc(F)c(-c2ccnc(N3CC[C@H](F)C3)c2-c2nc3c([nH]2)COCC3)c1` [Example 56, (S)-2-(4-(2,5-difluorophenyl)-2-(3-fluoropyrrolidin-1-yl)pyridin-3-yl)-3,4,6,7-tetrahydropyrano[3,4-d]imidazole]: the EC50 was in the range of 1000 to 10000 nM and the “Empirical Emax” value is “++++ (++++ indicates a value greater than 7.5)”.

`CC1(C)Cc2nc(-c3c(-c4cc(F)ccc4F)ccnc3N3CCC(F)(F)C3)[nH]c2CO1` [Example 57, 2-(4-(2,5-difluorophenyl)-2-(3,3-difluoropyrrolidin-1-yl)pyridin-3-yl)-6,6-dimethyl-3,4,6,7-tetrahydropyrano[3,4-d]imidazole]: the concentration giving a half-maximal response (EC50) is less than 1000 nM and the “Empirical Emax” value was “++++ (++++ indicates a value greater than 7.5)”.

Consider `COC1CCc2nc(-c3c(-c4ccccc4)ccnc3N3CC[C@H](F)C3)[nH]c2C1` (stereo partly drawn) [Example 58, 2-(2-((S)-3-fluoropyrrolidin-1-yl)-4-phenylpyridin-3-yl)-6-methoxy-4,5,6,7-tetrahydro-1H-benzo[d]imidazole], for which the EC50 was 1000 to 10000 nM and the “Empirical Emax” value is on record as “++ (++ indicates a value from 2.0 up to 5.0 μM)”.

With `COC1CCc2nc(-c3c(-c4ccccc4)ccnc3N3CCC(F)(F)C3)[nH]c2C1` (centres unmarked) [Example 59, 2-(2-(3,3-difluoropyrrolidin-1-yl)-4-phenylpyridin-3-yl)-6-methoxy-4,5,6,7-tetrahydro-1H-benzo[d]imidazole], the EC50 is less than 1000 nM and the “Empirical Emax” value is given as “++ (++ indicates a value from 2.0 up to 5.0 μM)”.

For the compound `FC1(F)CCN(c2nccc(-c3ccccc3)c2-c2nc3c([nH]2)CCCC3)C1` [Example 60, 2-(2-(3,3-difluoropyrrolidin-1-yl)-4-phenylpyridin-3-yl)-4,5,6,7-tetrahydro-1H-benzo[d]imidazole], the EC50 is less than 1000 nM and the “Empirical Emax” value was “++ (++ indicates a value from 2.0 up to 5.0 μM)”.

In the case of `Cc1[nH]c(-c2c(-c3ccccc3)ccnc2N2CCC(F)(F)C2)nc1-c1ccccc1` [Example 61, 2-(3,3-difluoropyrrolidin-1-yl)-3-(5-methyl-4-phenyl-1H-imidazol-2-yl)-4-phenylpyridine], the EC50 was 1000 to 10000 nM and the “Empirical Emax” value is on record as “++ (++ indicates a value from 2.0 up to 5.0 μM)”.

Consider `CC(C)(C)c1nc(-c2c(-c3ccccc3)ccnc2N2CCC(F)(F)C2)no1` [Example 62, 5-(tert-butyl)-3-(2-(3,3-difluoropyrrolidin-1-yl)-4-phenylpyridin-3-yl)-1,2,4-oxadiazole], for which the EC50 was 1000 to 10000 nM and the “Empirical Emax” value was “+ (+ indicates a value less than 2.0 μM)”.

Turning to `OC1Cc2nc(-c3c(-c4ccccc4)ccnc3N3CCC(F)(F)C3)[nH]c2C1` [Example 63, 2-(2-(3,3-difluoropyrrolidin-1-yl)-4-phenylpyridin-3-yl)-1,4,5,6-tetrahydrocyclopenta[d]imidazol-5-ol], the 50% effective concentration (EC50) fell in the range of 1000 to 10000 nM and the “Empirical Emax” value was “++ (++ indicates a value from 2.0 up to 5.0 μM)”.

Regarding `c1ccc(-c2ccnc(N3CCOCC3)c2-c2nc3c([nH]2)COCC3)cc1` [Example 64, 2-(2-morpholino-4-phenylpyridin-3-yl)-3,4,6,7-tetrahydropyrano[3,4-d]imidazole], the EC50 was in the range of 10000 to 50000 nM and the “Empirical Emax” value is reported as “+ (+ indicates a value less than 2.0 μM)”.

Turning to `FC1(F)CN(c2nccc(-c3ccccc3)c2-c2nc3c([nH]2)COCC3)C1` [Example 65, 2-(2-(3,3-difluoroazetidin-1-yl)-4-phenylpyridin-3-yl)-3,4,6,7-tetrahydropyrano[3,4-d]imidazole], the EC50 is no less than 50000 nM and the “Empirical Emax” value is given as “++ (++ indicates a value from 2.0 up to 5.0 μM)”.

With `c1ccc(-c2ccnc(N3CC4(COC4)C3)c2-c2nc3c([nH]2)COCC3)cc1` [Example 66, 2-(4-phenyl-2-(2-oxa-6-azaspiro[3.3]heptan-6-yl)pyridin-3-yl)-3,4,6,7-tetrahydropyrano[3,4-d]imidazole], the 50% effective concentration (EC50) was 1000 to 10000 nM and the “Empirical Emax” value is “+++ (+++ indicates a value from 5.0 up to 7.5 μM)”.

Turning to `c1ccc(-c2ccnc(OC3CCC3)c2-c2nc3c([nH]2)COCC3)cc1` [Example 67, 2-(2-cyclobutoxy-4-phenylpyridin-3-yl)-3,4,6,7-tetrahydropyrano[3,4-d]imidazole], the EC50 is no less than 50000 nM and the “Empirical Emax” value is reported as “+ (+ indicates a value less than 2.0 μM)”.

Consider `F[C@H]1CCN(c2nccc(-c3ccccc3)c2-c2nc3ccccc3o2)C1` [Example 68, (S)-2-(2-(3-fluoropyrrolidin-1-yl)-4-phenylpyridin-3-yl)benzo[d]oxazole], for which the EC50 is no less than 50000 nM and the “Empirical Emax” value was “+ (+ indicates a value less than 2.0 μM)”.

As for `F[C@H]1CCN(c2nccc(-c3ccccc3)c2-c2nc(-c3ccccc3)n[nH]2)C1` [Example 69, (S)-2-(3-fluoropyrrolidin-1-yl)-4-phenyl-3-(3-phenyl-1H-1,2,4-triazol-5-yl)pyridine], the EC50 lay in the range of 1000 to 10000 nM and the “Empirical Emax” value is on record as “++ (++ indicates a value from 2.0 up to 5.0 μM)”.

Regarding `Fc1ccccc1-c1ccnc(N2CCC(F)(F)C2)c1-c1nc2c([nH]1)COCC2` [Example 72, 2-[2-(3,3-difluoropyrrolidin-1-yl)-4-(2-fluorophenyl)-3-pyridyl]-1,4,6,7-tetrahydropyrano[3,4-d]imidazole], the EC50 is less than 1000 nM and the “Empirical Emax” value is reported as “++++ (++++ indicates a value greater than 7.5)”.

Turning to `Fc1ccc(F)c(-c2ccnc(N3CCC(F)(F)C3)c2-c2nc3c([nH]2)CCOC3)c1` [Example 73, 2-[4-(2,5-difluorophenyl)-2-(3,3-difluoropyrrolidin-1-yl)-3-pyridyl]-1,4,6,7-tetrahydropyrano[3,4-d]imidazole], the EC50 was less than 1000 nM and the “Empirical Emax” value is listed as “+++ (+++ indicates a value from 5.0 up to 7.5 μM)”.
